{"source": "patent US12215389B2", "about": "“Compositions for detecting epigenetic modifications” (EXACT SCIENCES CORPORATION, priority 2007, dated 2025)", "test_system": "methylated gene promoters in FFPE tissue DNA", "test": "Real-time MSP on colon tissue samples", "set-up": "species or system human", "conditions": "for Specificity (%) / Sensitivity (%): 50 cases (adenoma + carcinoma) vs 39 controls, tissue", "method": "Real-time MSP was applied on a 7900HT fast real-time PCR system (Applied Biosystems). 2.4 μl of the modified DNA (equivalent to 2.5 μg unconverted DNA) was added to a PCR mix (total volume 12 μl) containing buffer (16.6 mM (NH4)2SO4, 67 mM Tris (pH 8.8), 6.7 mM MgCl2, 10 mM β-mercaptoethanol), dNTPs (5 mM), forward primer (6 ng), reverse primer (18 ng), molecular beacon (0.16 μM), BSA (0.1 μg), and Jumpstart DNA Taq polymerase (0.4 units; Sigma Aldrich). Cycle program used was as follows: 5 minutes 95° C., followed by 45 cycles of 30 seconds 95° C., 30 seconds 57° C. (51° C. for APC), and 30 seconds 72° C., followed by 5 minutes 72° C. A standard curve (2×106—20 copies) was included to determine copy numbers of unknown samples by interpolation of their Ct values to the standard curve.\nMarker selection in colon tissue: Based on re-expression, 224 different gene assays representing 145 gene promotors were tested on the Base5 methylation profiling platform (data not shown, see reference 1 for details). The 37 most differentially methylated gene sequences assessing 29 gene promoters were validated on retrospectively collected tumors from 65 colorectal cancer patients (all stages) and 74 distant resection ends (histopathologically normal) using real-time MSP. Several markers reliably detected CRC in those tissue samples (data not shown). The results were confirmed on an independent test set containing 39 tissue controls (non-cancerous), 34 carcinomas and 16 adenomas. Several combinations of the tested markers reliably detected CRC with high specificity and sensitivity.\nThe ten best performing markers GATA5, GATA4, SFRP1, SFRP2, APC, MGMT, NDRG4, OSMR, JPH3 and ADAM23 were validated with primer sets and beacon probes as specified in Table 24. In addition to the colon test genes, the independent reference gene β-Actin (ACT) was also measured. The ratios between the colon test genes and ACT were calculated, and are the test result of the assay.\nMarker candidates identified by re-expression were screened using 37 real-time methylation specific PCR (real-time MSP) assays. These assays were used to assess the methylation status of 29 gene promoters in 293 formalin-fixed paraffin-embedded (FFPE) tissue samples collected from various clinics. Samples included 99 carcinomas of various stages, 16 adenomas, 63 samples from patients with cancer other than CRC (20 breast [stages I-III], 22 bladder [stages I-III], 21 lung [stages I and II]), 39 samples from patients with no evidence of cancer and 76 distant resection ends (histopathologically normal) from CRC patients. These samples were divided into training and independent test sets, and used to select the gene methylation assays best able to discriminate between cancerous and non-cancerous samples. The training set included retrospectively collected tumors from 65 colorectal cancer patients (all stages) and 74 distant resection ends. Using the 10 best performing genes the results were confirmed on an independent test set containing 59 samples from patients with cancer other than CRC, 39 non-cancerous controls and 50 cancer cases (34 carcinomas and 16 adenomas).\nThe individual performance of the 10 best performing tissue markers OSMR, SFRP1, GATA4, SFRP2, NDRG4, ADAM23, GATA5, MGMT, APC and JPH3 is shown in FIG. 7, when the analytical cut-off was set to give 100% specificity, except for JPH3 where a specificity of 95% was obtained (based on the 39 non-cancerous controls). In addition to the colon test genes, the independent reference gene β-Actin (ACT) was also measured. The ratios between the colon test genes and ACT were calculated, and are the test result of the assay.", "key": {"[1]": {"conditions": "16 adenoma tissue samples vs 39 controls"}, "[2]": {"conditions": "34 carcinoma tissue samples vs 39 controls"}, "[3]": {"conditions": "second cut off ratio, between ( )"}}, "data": [{"substance": "GATA5 (DNA AGTTCGTTTTTAGGTTAGTTTTCGGC; listed as DNA, chemistry not given here)", "values": [{"measurement": "Sensitivity", "setting": "[1]", "result": 63, "unit": "%"}, {"measurement": "Specificity", "setting": "[1]", "result": 100, "unit": "%"}, {"measurement": "Sensitivity", "setting": "[2]", "result": 53, "unit": "%"}, {"measurement": "Specificity", "setting": "[2]", "result": 100, "unit": "%"}, {"measurement": "Specificity (%)", "result": 100, "unit": "%"}, {"measurement": "Sensitivity (%)", "setting": "first cut off ratio", "result": 56, "unit": "%"}, {"measurement": "Sensitivity (%)", "setting": "[3]", "result": "(66) %"}]}, {"substance": "SFRP1 (DNA TGTAGTTTTCGGAGTTAGTGTCGCGC; listed as DNA, chemistry not given here)", "values": [{"measurement": "Sensitivity", "setting": "[1]", "result": 88, "unit": "%"}, {"measurement": "Specificity", "setting": "[1]", "result": 100, "unit": "%"}, {"measurement": "Sensitivity", "setting": "[2]", "result": 82, "unit": "%"}, {"measurement": "Specificity", "setting": "[2]", "result": 100, "unit": "%"}, {"measurement": "Specificity (%)", "result": 100, "unit": "%"}, {"measurement": "Sensitivity (%)", "setting": "first cut off ratio", "result": 84, "unit": "%"}, {"measurement": "Sensitivity (%)", "setting": "[3]", "result": "(92) %"}]}]}
